In PMC3074303 (Biochemistry, 2010) one finds Kd data, which are given here for 1 compound.

The Kd is the constant that tells how readily two partners part at equilibrium.

This assay deals with arrestin-1 (visual arrestin) (Bos taurus, UniProt P08168, F197A/F85A). As to the kind of experiment: 2D 1H-15N TROSY NMR chemical shift titration fitted to a […] model. It counts as binding.
arrestin-1 (visual arrestin), sequence (P08168 whole entry F85A/F197A): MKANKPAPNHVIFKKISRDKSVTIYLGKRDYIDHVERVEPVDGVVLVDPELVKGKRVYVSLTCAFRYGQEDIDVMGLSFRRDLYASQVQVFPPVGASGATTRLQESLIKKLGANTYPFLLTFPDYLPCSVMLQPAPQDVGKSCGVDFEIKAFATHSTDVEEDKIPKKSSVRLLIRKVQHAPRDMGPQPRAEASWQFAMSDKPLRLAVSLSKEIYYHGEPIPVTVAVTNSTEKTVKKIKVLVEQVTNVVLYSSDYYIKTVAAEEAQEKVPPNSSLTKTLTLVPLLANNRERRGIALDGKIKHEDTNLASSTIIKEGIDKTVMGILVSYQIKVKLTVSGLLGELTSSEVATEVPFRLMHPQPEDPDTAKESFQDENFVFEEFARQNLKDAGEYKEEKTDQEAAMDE

Take `O=P(O)(O)O[C@H]1[C@H](OP(=O)(O)O)[C@@H](OP(=O)(O)O)[C@H](OP(=O)(O)O)[C@@H](OP(=O)(O)O)[C@H]1OP(=O)(O)O` [IP6]: the Kd amounted to 160 ± 60 µM.
